We go through one substance from patent US20220324965A1, “COMBINATION THERAPY INVOLVING ANTIBODIES AGAINST CLAUDIN 18.2 AND IMMUNE CHECKPOINT INHIBITORS FOR TREATMENT OF CANCER” (Astellas Pharma Inc., priority 2019, published 2022).

What all share (assay type): in vivo
The subject of assay [1] is CLS-103 LVT-murinCLDN18.2 syngeneic tumors. The experiment in a line: Efficacy of IMAB362 plus anti-mCTLA-4 antibody in subcutaneous syngeneic gastric carcinoma model, endpoint day 14 (Example 3). As to conditions: n=12 per group, IMAB362 800 μg/mouse, anti-mCTLA-4 antibody 300 μg/mouse, intraperitoneal twice per week, vs Rituximab/isotype control group. From the text:
In order to determine whether a combination of an anti-CLDN18.2 antibody and an immune checkpoint inhibitor improves anti-tumor activity over the single agents alone in vivo, anti-tumor activity of IMAB362 in combination with an anti-mCTLA-4 antibody was examined in a subcutaneously transplanted syngeneic gastric carcinoma model in immunocompetent outbred Crl:NMRI(Han) mice using CLS-103 cells with lentiviral transduction of murine CLDN18.2 (CLS-103 LVT-murinCLDN18.2). Rituximab was used as an isotype control of IMAB362.
(§1) • Anti-CLDN18.2 antibody: IMAB362 (Astellas Pharma Inc.) • control antibody: Rituximab BS Intravenous Infusion [KHK] […]
(§2) Lentivirally transduced mouse CLDN18.2 expressing tumor cells (CLS-103 LVT-murinCLDN18.2) were engrafted subcutaneously into the right flank of female Crl:NMRI(Han) mice (11-week-old) at 2×10^6 cells/mouse. Mice were randomized based on tumor volume measured 2 days after engraftment into 4 groups (n=12 per group). […] Tumors were measured twice per week. […] Tumor volume was determined by length×width×width×0.5. Tumor growth inhibition (TGI [%]) or tumor regression rate (TRR [%]) of each group was calculated using the equations described below. […]

The test system is the same in assay [2]. The experiment in a line: Long-term efficacy of IMAB362 plus anti-mPD-1 antibody in subcutaneous syngeneic gastric carcinoma model, up to day 28 (Example 2). Particulars: IMAB362 800 μg/mouse, anti-mPD-1 antibody 100 μg/mouse, intraperitoneal twice per week.
Description: In order to determine whether a combination of an anti-CLDN18.2 antibody and an immune checkpoint inhibitor improves anti-tumor activity over the single agents alone in vivo in long-term period, anti-tumor activity of IMAB362 in combination with an anti-mPD-1 antibody was examined up to day 28 in a subcutaneously transplanted syngeneic gastric carcinoma model in immunocompetent outbred Crl:NMRI(Han) mice using CLS-103 cells with lentiviral transduction of murine CLDN18.2 (CLS-103 LVT-murinCLDN18.2). Rituximab was used as an isotype control of IMAB362.
as §1
Lentivirally transduced mouse CLDN18.2 expressing tumor cells (CLS-103 LVT-murinCLDN18.2) were engrafted subcutaneously into the right flank of female Crl:NMRI(Han) mice (11-week-old) at 2×10^6 cells/mouse. Mice were randomized based on tumor volume measured 2 days after engraftment into 4 groups (n=12 per group). […] Tumors were measured twice per week. […] Tumor volume was determined by length×width×width×0.5. Mean tumor volume was calculated up to day 21 since 1 of 12 mice in the Rituximab/isotype treated group, as well as in the anti-mPD-1 antibody single agent group, was sacrificed due to tumor size being over 2000 mm^3. […] Complete regression (CR) was determined up to day 28 as the tumor volume of individual regressed to zero. […]

Assay [3] has the same test system. The experiment in a line: Efficacy of IMAB362 plus anti-mPD-1 antibody in subcutaneous syngeneic gastric carcinoma model, endpoint day 14 (Example 1). As to conditions: female Crl:NMRI(Han) mice, n=12 per group, IMAB362 800 μg/mouse, anti-mPD-1 antibody 100 μg/mouse, intraperitoneal twice per week, vs Rituximab/isotype control group.
Description: In order to determine whether a combination of an anti-CLDN18.2 antibody and an immune checkpoint inhibitor provides improved anti-tumor activity over the single agents alone in vivo, anti-tumor activity of IMAB362 in combination with an anti-mPD-1 antibody was examined in a subcutaneously transplanted syngeneic gastric carcinoma model in immunocompetent outbred Crl:NMRI(Han) mice using CLS-103 cells with lentiviral transduction of murine CLDN18.2 (CLS-103 […]). Rituximab was used as an isotype control of IMAB362.
as §1
Lentivirally transduced mouse CLDN18.2 expressing tumor cells (CLS-103 LVT-murinCLDN18.2) were engrafted subcutaneously into the right flank of female Crl:NMRI(Han) mice (10-week-old) at 2×10^6 cells/mouse. Mice were randomized based on tumor volume measured 2 days after engraftment into 4 groups (n=12 per group). […] Tumors were measured twice per week. […] Tumor volume was determined by length×width×width×0.5. Tumor growth inhibition (TGI[%]) of each group was calculated using the equation described below. […]

The test system is the same in assay [4]. The experiment in a line: Efficacy of IMAB362 plus anti-mPD-L1 antibody in subcutaneous syngeneic gastric carcinoma model, endpoint day 14 (Example 4). As to conditions: n=12 per group, IMAB362 800 μg/mouse, anti-mPD-L1 antibody 300 μg/mouse, intraperitoneal twice per week, vs Rituximab/isotype control group.
Description: In order to determine whether a combination of an anti-CLDN18.2 antibody and an immune checkpoint inhibitor improves anti-tumor activity over the single agents alone in vivo, anti-tumor activity of IMAB362 in combination with an anti-mPD-L1 antibody was examined in a subcutaneously transplanted syngeneic gastric carcinoma model in immunocompetent outbred Crl:NMRI(Han) mice using CLS-103 cells with lentiviral transduction of murine CLDN18.2 (CLS-103 LVT-murinCLDN18.2). Rituximab was used as an isotype control of IMAB362.
as §1, §2

As to “IMAB362: chimeric IgG1 antibody directed against CLDN18.2; heavy chain SEQ ID NO: 51, light chain SEQ ID NO: 24”, the “Tumor growth inhibition (TGI)” value in assay [1] is on record as 72%; in assay [2] (day 21, n=12 per group, vs Rituximab/isotype control group), 40%; in assay [3], 50%; in assay [4] it was 60%. Further, in assay [2] (day 28, CR = tumor volume regressed to zero), the “number of mice with complete regression (CR) in the group of 12 mice” value was determined as 2.
